According to PMC11164811 (Investigational New Drugs, 2024):
Where two headings read alike, the source gives them in different places.

Legend:
[1] = test system: patients with advanced or metastatic solid tumors; assay: Dose-limiting toxicities during first 21 days, phase 1b MK-5618-001; assay type: in vivo, human; settings: selumetinib twice daily 2 weeks on/1 week off in combination with pembrolizumab
Description: At least 3 patients were enrolled at each dose level; the modified toxicity probability interval (mTPI) design, with a target dose-limiting toxicity (DLT) rate of ~30%, was used to identify a potential maximum tolerated dose. Dose escalation and de-escalation decisions were based on the mTPI design and were dependent on the number of patients enrolled and number of DLTs observed at the particular dose level (Online Resource 1). Dose finding was considered complete after 14 patients were enrolled at any of the tested dose levels and the decision was made to stay at that dose level.
(§1) No formal hypothesis testing was planned.
Any treatment-related toxicity that causes the patient to discontinue treatment during cycle 1 […]
Cardiac disorders including
• Absolute decrease in left ventricular ejection fraction >10% compared with baseline and below the institution’s lower limit of normal • Grade ≥3 left ventricular systolic dysfunction
• Other cardiac disorders grade ≥3
Vascular disorders including
• Grade ≥3 hypertension requiring >1 drug or more intensive therapy […]
assessment. […] The occurrence of any of the toxicities listed in this table was considered a dose-limiting toxicity if assessed by the investigator to be possibly, probably , or definitely related

[2] = Plasma pharmacokinetics of selumetinib and N-desmethyl selumetinib on day 1 of cycle 1; assay type: in vivo, human
Description: Additional predose samples were collected on days 1 and 14 of cycle 2 and on days 1 and 14 of cycle 5.
as §1

Observed t1/2, range across dose levels ([2]; human, in vivo) [h]	SMILES	Maximum tolerable dose level [1]	half-life ([2]; human, in vivo, day 1 of cycle 1, selumetinib 50-125 mg, read-out: Observed t1/2, range across dose levels) [h]	half-life ([2]; human, in vivo, plasma, day 1 of cycle 1, Selumetinib 125 mg + Pembrolizumab 200 mg, n = 11, geometric mean (% geometric CV), read-out: t1/2 (converted)) [h]	AUC0‒last ([2]; plasma, day 1 of cycle 1, Selumetinib 125 mg + Pembrolizumab 200 mg, n = 14, geometric mean (% geometric CV))
–	Cn1cnc2c(F)c(Nc3ccc(Br)cc3Cl)c(C(=O)NOCCO)cc21 [Selumetinib, selumetinib]	exceeds 125 mg	2.82 to 3.82	2.82	4430 (57.6) h · ng/mL
3.07 to 3.94	O=C(NOCCO)c1cc2nc[nH]c2c(F)c1Nc1ccc(Br)cc1Cl [N-Desmethyl selumetinib, N-desmethyl selumetinib]	–	–	–	–
